Eight molecules from patent US20120178124A1, “STEROL SIDE CHAIN-CLEAVING ENZYME PROTEIN AND USE THEREOF” (MITSUBISHI CHEMICAL CORPORATION, priority 2009, published 2012) can be followed below.

The target of one series is T1, CYP11A (Homo sapiens, UniProt P05108).
T1 construct: A 1.45-kb CYP11A1 gene fragment amplified as a result of the above-described reaction; expressed in transfected cells; host or cells: Escherichia coli BL21(DE3), plasmid pCYP11A-ARX (strain BL21CYP11)
T1 sequence (P05108 40-521): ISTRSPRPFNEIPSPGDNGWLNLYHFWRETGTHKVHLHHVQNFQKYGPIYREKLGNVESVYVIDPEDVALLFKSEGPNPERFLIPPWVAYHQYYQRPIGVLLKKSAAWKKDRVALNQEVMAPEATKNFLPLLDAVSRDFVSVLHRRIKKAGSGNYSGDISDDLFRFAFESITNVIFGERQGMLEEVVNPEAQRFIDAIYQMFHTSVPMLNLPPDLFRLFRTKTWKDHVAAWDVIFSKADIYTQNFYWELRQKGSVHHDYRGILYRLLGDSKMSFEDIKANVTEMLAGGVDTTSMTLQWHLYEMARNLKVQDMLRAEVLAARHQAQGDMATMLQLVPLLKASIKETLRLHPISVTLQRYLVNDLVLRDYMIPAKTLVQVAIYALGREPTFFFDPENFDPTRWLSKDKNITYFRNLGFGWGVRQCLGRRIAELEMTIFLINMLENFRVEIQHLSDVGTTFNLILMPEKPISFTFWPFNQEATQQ
The experiment in a line: Conversion reaction of substrates by CYP11A-expressing Escherichia coli. Format: cell-based. The note with it: for added substrate remained / accumulated amount of pregnenolone: same reaction as Example 6; for Conversion rate: same reaction as Example 6 (28° C., 5 hours). As for the experimental part: (§1) The Escherichia coli expression strain BP215 was inoculated into 2 ml of an M9 mix medium (Na2HPO4: 0.68%, KH2PO4: 0.3%, NaCl: 0.05%, NH4C;: 0.01%, Casamino acid: 1%, D-Glucose: 0.4%, CaCl2: 0.1 mM, MgCl2: 1 mM, Thiamine: 0.002%, FeSO4: 0.1 mM, Carbenicillin: 0.005%), and it was then subjected to shaking culture at 30° C. for 17 hours, so as to obtain pre-culture solution. 0.25 ml of this pre-culture solution was inoculated into 25 ml of the main culture medium (Na2HPO4: 0.68%, KH2PO4: 0.3%, NaCl: 0.05%, NH4Cl: 0.01%, Casamino acid: 1%, CaCl2: 0.1 mM, MgCl2: 1 mM, Thiamine: 0.002%, FeSO4: 0.1 mM, Carbenicillin: 0.005%, Overnight Express™ solution: 7%, 5-Aminolevlic acid: 0.008%) using Overnight Express™ Autoinduction System (Novagen Cat. No. 71300-4), and it was then subjected to shaking culture at 25° C. for 24 hours. 5 ml of the obtained main culture solution was centrifuged (3500 rpm, 10 minutes) to obtain cell mass, and 1 ml of CV2 buffer (50 mM (pH) potassium phosphate buffer containing glycerol: 2%, carbenicillin: 0.005%, and isopropyl β-D-1-thiogalactopyranoside: 0.1 mM) was added to the obtained cell mass. Thereafter, 0.01 ml of the methanol solution of 1% 4-cholesten-3-one and 0.02 ml of an aqueous solution of 25% methyl-β-cyclodextrin were added to the mixed solution, and the obtained mixture was then shaken at 28° C. for 5 hours for the reaction. After completion of the reaction, 4 ml of methanol was added to the reaction solution, and they were then fully mixed. The obtained mixture was centrifuged, and the upper layer was then analyzed by HPLC.
A commercially available human testis cDNA (Origene Technologies, Inc.) was used as a template, and a CYP11A1 gene was amplified by PCR using a primer CYP11A-1F (SEQ ID NO: 19) and a primer CYP11A-2R (SEQ ID NO: 20), and also using KOD plus polymerase (TOYOBO Co., Ltd.). The temperature conditions applied during the PCR were 94° C./3 min, 30 cycles of (94° C./30 sec, 55° C./60 sec, and 72° C./90sec), and 72° C./5 min.
A 1.45-kb CYP11A1 gene fragment amplified as a result of the above-described reaction was purified using QIAquick PCR purification Kit (manufactured by QIAGEN), and it was then digested with Nde I and Spe I. Thereafter, the digest was ligated to Escherichia coli expression vector pT7NS-camAB, using T4 DNA ligase, and Escherichia coli DH5α was then transformed with the obtained expression vector, so as to construct a plasmid pCYP11A-camAB. Subsequently, using T4 DNA ligase, the previously prepared bovine-derived adrenodoxin reductase protein-adrenodoxin gene (adr-adx) fragment was inserted into and ligated to each of the Spe I and Bam HI sites of the above-described plasmid, and Escherichia coli DH5a was then transformed with the obtained plasmid, so as to construct plasmid pCYP11A-ARX. Thereafter, Escherichia coli BL21(DE3) was transformed with the thus constructed plasmid, and the obtained cell strain was named as BL21CYP11. The used adx-adr fragment was amplified by PCR with a plasmid pKARX (Sawada et. al. Eur. J. Biochem. 265, 950-956,1999) as a template, using primer bAdxR-1F (SEQ ID NO: 21) and primer bAdx-2R (SEQ ID NO: 22), and also using KOD plus polymerase (manufactured by TOYOBO Co., Ltd.). The temperature condition applied during the PCR were 94° C./3 min, 25 cycles of (94° C./30 sec, 60° C./30 sec, and 72° C./120sec), and 72° C./5 min.
Each substrate was subjected to the same reaction as that of Example 6, separately, and the reaction solution was then subjected to liquid separation using 1 ml of ethyl acetate. The reaction product and the substrate were extracted, and were then analyzed by HPLC.

A further series deals with CYPSS204A. Description: Conversion reaction of substrates by Escherichia coli expression strain BP215. Format: cell-based, Sphingomonas subterranea NBRC 16086. To be noted: strain BP215, 28° C., 5 hours; for Conversion rate: to progesterone, pregnenolone or 7-dehydropregnenolone. As for the experimental part:
The temperature conditions applied during the PCR were 95° C./5 min, 30 cycles of (98° C./30 sec, 60° C./30 sec, and 68° C./2 min), and 68° C./10 min.
Analysis conditions: Using Chromolith speed rod RP18e (50×4.6 mm) column, 50%→100% CH3CN gradient (0 to 3 min) and 100% CH3CN (3 to 8 min) were used as a mobile phase, and detection was carried out at a flow rate of 2 ml/min using CAD™ (Charged Aerosol Detection) and MS.

In the next series the test system is CYP204A1. The note with it: for Conversion rate: strain BP172, same reaction as Example 6 (28° C., 5 hours); for accumulated amount of pregnenolone / added substrate remained: strain BP172, same reaction as Example 6. The protocol: Novosphingobium aromaticivorans (ATCC 700278) was inoculated into an L medium, and it was then cultured at 30° C. for 2 days. Thereafter, genomic DNA was extracted from the cell mass obtained in the same manner as that of Example 1. A fragment comprising a CYPSS204A1 gene and a ferredoxin gene located downstream thereof was amplified from the above-described genomic DNA by using a primer CYP-5F (SEQ ID NO: 9) and a primer CYP-6R (SEQ ID NO: 10) and also using La Taq polymerase (manufactured by Takara Bio INC.). The temperature conditions applied during this operation were 94° C./3 min, 30 cycles of (98° C./20 sec, 63° C./30 sec, and 68° C./2 min), and 72° C./5 min.
Escherichia coli BL21(DE3) was transformed with this plasmid, and the obtained cell strain was named as BP172.
as §1
As substrates, 4-cholesten-3-one, cholesterol, 7-dehydrocholesterol, ergosterol, 13-sitosterol, stigmasterol, campesterol, desmosterol, (20S)-20-hydroxycholest-4-en-3-one, (22R)-22-hydroxycholest-4-en-3-one, (20R,22R)-20,22-dihydroxycholest-4-en-3-one, and (20R,22S)-20,22-dihydroxycholest-4-en-3-one were used. Each substrate was subjected to the same reaction as that of Example 6, separately, and the generated product was then analyzed by HPLC.

Substrate in series [1]: CC(C)CCC[C@@H](C)[C@H]1CC[C@H]2[C@@H]3CCC4=CC(=O)CC[C@]4(C)[C@H]3CC[C@]12C
Description: purified protein, by the assay type. To be noted: other: 4-cholesten-3-one 0.1 to 500 μM, pH 7.5, 15° C., 60 minutes, Lineweaver-Burk plot.

Consider `CC(C)CCC[C@](C)(O)[C@H]1CC[C@H]2[C@@H]3CCC4=CC(=O)CC[C@]4(C)[C@H]3CC[C@@]21C` [(20S)-20-hydroxycholest-4-en-3-one], for which the figures for the added substrate remained on CYP11A and in the series on CYPSS204A were 100% and 4.8%, respectively. Further, the Conversion rate on CYP11A is listed as 0%; in the series on CYPSS204A, 41.0%; with CYPSS204A (listed as 20-OH), 41%; with CYP204A1, 63.9%.
Take `CC(C)=CCC[C@@H](C)[C@H]1CC[C@@]2(C)C3=C(CC[C@]12C)[C@@]1(C)CC[C@H](O)C(C)(C)[C@@H]1CC3` [Lano, lanosterol]: the Conversion rate on CYP11A, in the series on CYPSS204A and in the series with CYP204A1 was 0% throughout.
Consider `CC(C)CC[C@@H](O)[C@@H](C)[C@H]1CC[C@H]2[C@@H]3CC=C4C[C@@H](O)CC[C@]4(C)[C@H]3CC[C@]12C` [(22R)-22-hydroxy-cholesterol], for which, at CYP11A, the “accumulated amount of pregnenolone” value amounted to 28.0 mg/L, the added substrate remained is reported as 78.6% and the Conversion rate worked out at 28.0%. Besides, in the series on CYPSS204A, the “accumulated amount of pregnenolone” value is recorded as 80.0 mg/L, the added substrate remained worked out at 14.8% and the Conversion rate is recorded as 80%. For the same molecule, in the series with CYP204A1, the “accumulated amount of pregnenolone” value is 69.5 mg/L, the added substrate remained is 42.8% and the Conversion rate came to 69.5%.
Turning to `CC(C)CC[C@@H](O)[C@](C)(O)[C@H]1CC[C@H]2[C@@H]3CCC4=CC(=O)CC[C@]4(C)[C@H]3CC[C@]12C` [(20R,22R)-20,22-dihydroxycholest-4-en-3-one], the added substrate remained is 95% on CYP11A and 0.6% with CYPSS204A. Further, the Conversion rate on CYP11A is reported as 4.3%; with CYPSS204A, 38.1%; in the series on CYP204A1, 61.3%.
As to `CC(C)CC[C@@H](O)[C@](C)(O)[C@H]1CC[C@H]2[C@@H]3CC=C4C[C@@H](O)CC[C@]4(C)[C@H]3CC[C@]12C` [(20R,22R)-20,22-dihydroxy-cholesterol], at CYP11A, the “accumulated amount of pregnenolone” value came out at 32.3 mg/L, the added substrate remained amounted to 51.6% and the Conversion rate is 32.3%. Also, in the series on CYPSS204A, the “accumulated amount of pregnenolone” value is recorded as 53.0 mg/L, the added substrate remained came to 0% and the Conversion rate is 53.0%. In addition, in the series with CYP204A1, the “accumulated amount of pregnenolone” value turned out to be 51.6 mg/L, the added substrate remained is 0% and the Conversion rate turned out to be 51.6%.
In the case of `CC(C)CCC[C@@H](C)[C@H]1CC[C@H]2C3=CC=C4C[C@@H](O)CC[C@]4(C)[C@H]3CC[C@]12C` [7-dehydrocholesterol], at CYP11A, the added substrate remained came out at 99.2% and the Conversion rate is on record as 0.7%. Moreover, in the series with CYPSS204A, the “accumulated amount of side-chain cleavage product” value turned out to be 34.3 mg/L, the added substrate remained worked out at 54% and the Conversion rate turned out to be 34.3%. The Conversion rate in the series with CYP204A1 amounted to 28.5%.
Consider `CC(C)=CCC[C@@H](C)[C@H]1CC[C@H]2[C@@H]3CC=C4C[C@@H](O)CC[C@]4(C)[C@H]3CC[C@]12C` [desmosterol], for which, at CYP11A, the added substrate remained was 99.6% and the Conversion rate amounted to 1.2%. Moreover, in the series with CYPSS204A, the “accumulated amount of side-chain cleavage product” value amounted to 71.7 mg/L, the added substrate remained was 21.3% and the Conversion rate came to 71.7%. Also, the Conversion rate in the series on CYP204A1 is on record as 66.1%.

B1: Novosphingobium aromaticivorans ATCC 700278 P450scc CYP204A1, wild type, SEQ ID NO: 23 (Novosphingobium aromaticivorans DSM 12444) (protein)
chain: MARAATAAGNGLPLLDGGVPLLGHLAQFFRDPVSVLKRGYRSKGRLFAMNFMGQRMNVMLGPEHNRFFFEETDKLLSIRESMPFFLKMFSPEFYSFAEMDEYLRQRSIIMPRFKAASMKQYVPVMVEESLNLVERLGEEGEFDLIPTLGPVVMDIAAHSFMGREFHEKLGHEFFELFRDFSGGMEFVLPLWLPTPKMVKSQRAKRKLHAILQSWIDKRRAAPLDPPDFFQTMIETKYPDGRPVPDEIIRHLILLLVWAGHETTAGQVSWALADLLQNPDYQKVLRGEISSLLGGSDGRDLGWEQAVAMEKMDLALRETERLHPVAYMLSRKARADIERDGYVIRKGEFVLLAPSVSHRMEETFRNPDAYDPERFNPANPDAQIESNSLIGFGGGVHRCAGVNFARMEMKVLVAILLQNFDMELMDEVRPIAGASTYWPAQPCRVRYRRRKLDGSEAGADMAALARAAGCPAHT
In the case of B1, the Km (usually the substrate concentration at which the rate is half of its maximum) in series [1] worked out at 1.0 µM.
